Tests used:
Assay in all cases: relative viability (nuclei count vs DMSO), 5 days (fraction); higher = more cells survive
[1] = compound: O=C(C[C@H]1NCCC[C@@H]1O)Cn1cnc2cc(Br)c(Cl)cc2c1=O (racemic) [Halofuginone] + COc1cc2c(Oc3ccc(NC(=O)C4(C(=O)Nc5ccc(F)cc5)CC4)cc3F)ccnc2cc1OCCCN1CCOCC1 [Foretinib] (partner 0.25 µM)
Outline: (§1)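 Each reported value is a median over duplicate plates. It expresses relative viability: treated-well nuclei count divided by vehicle-well nuclei count. Lung cancer cell lines in 1536-well plates were dosed by pin tool a day after seeding, alone with one drug or with a fixed anchor-drug dose plus five library-drug doses (not always all listed) in √10 steps, and nuclei were counted after 5 days.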

[2] = compound: COc1cc2c(Oc3ccc4[nH]c(C)cc4c3F)ncnc2cc1OCCCN1CCCC1 [Cediranib] + C[C@@H](Oc1cc(-c2cnn(C3CCNCC3)c2)cnc1N)c1c(Cl)ccc(F)c1Cl [Crizotinib] (partner 1 µM)
Outline: as §1

[3] = compound: O=C(C[C@H]1NCCC[C@@H]1O)Cn1cnc2cc(Br)c(Cl)cc2c1=O (racemic) [Halofuginone] + Cc1nc(NC(=O)N2CCC[C@H]2C(N)=O)sc1-c1ccnc(C(C)(C)C(F)(F)F)c1 [Alpelisib] (partner 2 µM)
Outline: as §1

[4] = compound: Nc1ncn([C@H]2C[C@H](O)[C@@H](CO)O2)c(=O)n1 [Decitabine] + N=C(N)NC(=N)NCCc1ccccc1 [Phenformin] (partner 250 µM)
Outline: as §1

Cell Line	relative viability ([1]; first compound 0.001 µM)	relative viability ([1]; first compound 0.003162 µM)	relative viability ([1]; first compound 0.01 µM)	relative viability ([1]; first compound 0.03162 µM)	relative viability ([1]; first compound 0.1 µM)	relative viability ([2]; first compound 0.04 µM)	relative viability ([2]; first compound 0.1265 µM)	relative viability ([2]; first compound 0.4 µM)	relative viability ([2]; first compound 1.265 µM)	relative viability ([2]; first compound 4 µM)	relative viability ([3]; first compound 0.001 µM)	relative viability ([3]; first compound 0.003162 µM)	relative viability ([3]; first compound 0.01 µM)	relative viability ([3]; first compound 0.03162 µM)	relative viability ([3]; first compound 0.1 µM)	relative viability ([4]; first compound 0.04 µM)	relative viability ([4]; first compound 0.1265 µM)	relative viability ([4]; first compound 0.4 µM)	relative viability ([4]; first compound 4 µM)	relative viability ([4]; first compound 1.265 µM)
201T	1.09	1.09	0.931	0.558	0.193	1.05	1.18	0.989	1.01	1.01	1.04	1.01	1.01	0.998	0.841	0.42	0.454	0.518	0.409	
A549	1.06	0.921	0.925	0.507	0.112	0.805	0.768	0.679	0.773	0.605	0.919	0.765	0.685	0.44	0.15	0.145	0.139	0.157	0.0645	0.0732
A-427	0.979	1.03	1.02	1.06	0.915	0.946		0.829	0.866	0.884	1.07	1.14	1.05	0.978	0.94	0.239	0.265	0.19	0.164	0.18
ABC-1	1.28	1.38	1.07	1.13	0.9	1.39	1.17	1.34		0.999	1.2	0.936	1	0.947	1.03	0.238	0.231	0.25	0.212	0.252
BEN	0.71	0.815	0.889	0.646	0.242	1.19	0.662	0.971	0.824	0.816	0.974	1.12	1.1	0.975	0.478	0.28	0.261	0.259	0.245	0.239
CAL-12T	1.33	1.21	1.08	1.41	0.898	0.855	0.639	0.661	0.638	0.62	1.4	1.16	1.03	1.11	1.02	0.517	0.633		0.339	0.372
COR-L23	1	0.996	1.02	0.904	0.353	0.696	0.749	0.654	0.703	0.68	0.808	0.823	0.754	0.635	0.118	0.362	0.311	0.303	0.253	0.253
COR-L 105	1.07	0.894	1.31	1.09	0.846		0.842	0.832	0.716	0.695	1.31	0.934	0.857	0.831	0.629	0.308	0.441	0.383	0.421	0.308
Calu-6	0.961	0.95	0.925	0.472	0.109	0.844	0.849	0.81	0.786	0.602	1.16	1.01	0.94	0.362	0.17					
ChaGo-K-1	0.999	0.915	0.93	0.881	0.786	1.08		1.08	1.14	0.874						0.435	0.413	0.301	0.336	0.271
EBC-1	0.106	0.112	0.108	0.104	0.104	0.17	0.213	0.21	0.201	0.172	0.939	0.779	0.666	0.441	0.181					
EKVX	0.806	0.794	0.947	0.794	0.293	0.933	0.92	0.936	0.895	0.975	1.01	0.922	0.862	0.859	0.638	0.223	0.22	0.227	0.202	0.177
EMC-BAC-2	1.06	0.972	0.986	0.78	0.423	0.782	0.703	0.754	0.785	0.853	0.765	0.761	0.766	0.723	0.517	0.514	0.541	0.462	0.406	0.414
EPLC-272H	0.792	0.742	0.736	0.78	0.72	0.735		0.945	1.04	0.906	1.04	0.893	0.866	1.02	0.798		0.26	0.0458	0.199	0.223
H3255	0.748	0.849	0.825	1.01	0.856	0.945	0.699	0.825	0.925	0.861	0.664	0.619	0.558	0.683	0.606		0.339	0.364	0.347	0.291
HARA	0.997	0.954	0.934	0.896	0.493	1.07	1.15	0.991	1.02	1.03	1.05	0.817	0.836	0.839	0.743	0.307	0.36	0.236	0.125	0.148
HCC-15	1.02	1.1	1.05	0.967	0.787	0.93		0.787	0.816	0.828	0.847	0.903	0.861	0.888	0.683	0.448	0.49	0.252	0.333	0.327
HCC-44						0.803		0.774	0.825	0.935	0.804	0.774	0.691	0.797	0.433	0.136	0.196	0.0892	0.13	0.136
HCC-78	0.593	0.635	0.488	0.684	0.552	0.362	0.417	0.301	0.376	0.284	0.409	0.327	0.299	0.374	0.215	0.626	0.634	0.593	0.477	0.505

Cell Line	relative viability ([1]; first compound 0.001 µM)	relative viability ([1]; first compound 0.003162 µM)	relative viability ([1]; first compound 0.01 µM)	relative viability ([1]; first compound 0.03162 µM)	relative viability ([1]; first compound 0.1 µM)	relative viability ([2]; first compound 0.04 µM)	relative viability ([2]; first compound 0.1265 µM)	relative viability ([2]; first compound 0.4 µM)	relative viability ([2]; first compound 1.265 µM)	relative viability ([2]; first compound 4 µM)	relative viability ([3]; first compound 0.001 µM)	relative viability ([3]; first compound 0.003162 µM)	relative viability ([3]; first compound 0.01 µM)	relative viability ([3]; first compound 0.03162 µM)	relative viability ([3]; first compound 0.1 µM)	relative viability ([4]; first compound 0.04 µM)	relative viability ([4]; first compound 0.1265 µM)	relative viability ([4]; first compound 0.4 µM)	relative viability ([4]; first compound 4 µM)	relative viability ([4]; first compound 1.265 µM)
HCC-366	0.952	0.973	0.876	1.02	0.514	0.629	0.574	0.423	0.466	0.788	0.369	0.412	0.449	0.385	0.197	0.505	0.528	0.392	0.155	0.244
HCC-827	1.03	0.974	0.962	1.1	0.947	0.931		0.869	0.951	0.976	0.98	0.959	0.908	1.07	0.815	0.17	0.288	0.283	0.289	0.214
HOP-62	1.09	1.22	1.02	0.96	0.704	0.802		0.886	0.858	1.1	0.992	1.03	0.902	1.04	0.423	0.464	0.374	0.175	0.148	0.168
IA-LM	1.29	1.03	1.08	0.982	0.07	0.775	1.28	0.718	0.828	0.992	0.829	0.982	0.664	0.606	0.161					
LC-2-ad	0.928	0.973	0.866	1	0.497	0.462	0.425	0.366	0.474	0.419	0.952	0.847	0.861	0.772	0.334	0.512	0.552	0.509	0.416	0.419
LCLC-97TM1	1.02	0.947	0.935	1.02	0.935	0.272		0.352	0.47	0.363	0.298	0.23	0.305	0.209	0.199	0.304	0.308	0.312	0.124	0.293
LCLC-103H	0.871	0.768	0.813	0.749	0.848	0.995	1.09	1.02	1.07	1.07	1.09	1.02	0.915	0.954	0.956	0.319	0.36	0.293	0.315	0.328
LK-2	1.03	1.42	1.29	0.972	0.875	0.19	0.222	0.247	0.25	0.257	0.949	1.13	1.02	1.14	0.926	0.376	0.522	0.375	0.244	0.295
LOU-NH91	0.985	0.917	0.887	0.925	0.949	0.739	0.767	0.713	0.727	0.653	0.774	0.731	0.721	0.741	0.64	0.442	0.724	0.732	0.659	0.588
NCI-H522																0.564	0.674	0.514	0.65	0.552
NCI-H1299	1.13	1.13	1.07	1.09	0.561	0.982	0.945	0.957	0.92	0.929	1.04	1.09	1.02	1.01	1.04					
NCI-H1395	1.02	0.934	0.925	1.06	0.879						1.06	1.03	1.01	0.866	0.608	0.398	0.407	0.46	0.399	0.411
NCI-H1623	0.888	0.895	0.954	0.876	0.536											0.539	0.507	0.5	0.462	0.492
NCI-H1650	1.33	1.11	0.964	0.601	0.177	1.29	1.05	0.794	0.953	0.879						0.309	0.386	0.303	0.361	0.246
NCI-H1703	0.301	0.295	0.363	0.294	0.337	0.721	0.707	0.188	0.214	0.191	0.334	0.398	0.239	0.27	0.165					
NCI-H1792						1.03	1.03	0.915	0.979	0.882	0.795	0.724	0.702	0.662	0.686	0.445	0.275	0.707	0.175	0.262
NCI-H1793	0.814	0.74	0.538	0.67	0.429						0.687	0.666	0.623	0.722	0.396	0.384	0.411	0.336	0.244	0.305
NCI-H2342	1.22	0.984	0.971	0.963	1.08											0.597	0.732	0.511	0.535	0.514
SW 900	1.1	0.833	0.809	0.627	0.355											0.319	0.32	0.269	0.219	0.19

— the supplement of paper PMC10307832
